PMC10447463, “Data-mining unveils structure–property–activity correlation of viral infectivity enhancing self-assembling peptides” (Nature Communications, 2023)

Key:
[1] = system: HIV-1 infection of TZM-bl cells; assay: HIV-1 infectivity enhancement assay, β-galactosidase luminescence; type: cell-based
[2] = Turbidity, derived count rate of scattered light; type: physicochemical; conditions: for Count Rate / kcps: derived count rate of scattered light at 633 nm, 173°, from zeta-potential measurement, 0.1 mg/mL in 1 mM KCl after 1 d at 1 mg/mL in PBS, turbidity / microscopic aggregation, mean of triplicate; for Log Count Rate: log of derived count rate
How it was run: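 One-day room-temperature aggregation at 1 mg/mL in PBS (pH 7.4) preceded measurement; samples then went into 1 mM KCl. Triplicates per sample, two independent experiments averaged.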

[3] = log10 of infection relative to EF-C, Figure 7B
[4] = n-fold infection vs virus only, relative to that of EF-C, 1.3 µM peptide
[5] = Feb2021 run; infectivity n-fold relative to virus alone
[6] = Feb2021 run; log10 of infectivity relative to EF-C
[7] = Feb2021 run; n-fold infectivity relative to EF-C
[8] = infectivity class (low / medium / high) of the peptide in the sequence-pattern analysis, Fig. S22-A4; class limits not given
[9] = log10 of HIV-1 infection of TZM-bl cells relative to EF-C; Fig S15 source data; asymmetric std dev errors
[10] = derived count rate of scattered light, mean, std deviation in separate column
[11] = Feb2021; figures match the 1.3 µM column
[12] = Feb2021; infectivity relative to virus only
[13] = Feb2021; log10 of infectivity relative to EF-C
[14] = Feb2021; n-fold infectivity relative to EF-C
[15] = infectivity class (low / medium / high) of each library peptide; main list in c1-c6, same classes repeated in sub-lists of sequences containing the hydrophobicity/charge patterns P+,H0,P+,H0,P0,H0,P0; P+,H0,P0,H0,P0,H0,P0; P+,H0,P0,H0
[16] = infectivity enhancement relative to EF-C (=1); Feb2021 run
[17] = infectivity n-fold relative to virus only; Feb2021 run
[18] = log10 of infectivity relative to EF-C; Feb2021 run
[19] = derived count rate from zeta measurement, mean
[20] = derived count rate of scattered light
[21] = HIV-1 infection relative to EF-C; Fig 23 plot, panels A and B; mean of 3 values
[22] = HIV-1 infection relative to EF-C; Fig 23 plot, single data point, replicate 1
[23] = HIV-1 infection relative to EF-C; Fig 23 plot, single data point, replicate 2
[24] = HIV-1 infection relative to EF-C; Fig 23 plot, single data point, replicate 3
[25] = log10 of infection relative to EF-C, Figure 6C
[26] = log10 of derived count rate of scattered light, Figure 6C
[27] = logarithm of count rate in kcps

| Substance | Inf. rel. EF-C [1, 4] | Count Rate / kcps [2] | Log10 Inf. rel. to EF-C [1, 9] | Absolute Infectivity / RLU /s (Feb2021) [1, 11] | n-fold to virus (Feb2021) [1, 12] | Log10 of Rel to EFC (Feb2021) [1, 13] | Rel-to EFC (Feb-2021) [1, 14] | infectivity [1, 15] | Rel-to EFC (Feb-2021) [1, 16] | n-fold to virus (Feb2021) [1, 17] | Log10 of Rel to EFC (Feb2021) [1, 18] | Zeta Count Rate Category ([2]; category 1 / 0, no key given) | Zeta Count Rate / kcps [2, 19] | Zeta Count Rate / kcps [2, 20] | Zeta Count Rate Category ([2]; key not given) | other results |
| --- | --- | --- | --- | --- | --- | --- | --- | --- | --- | --- | --- | --- | --- | --- | --- | --- |
| IIIQGK [reference compound] | 0.06 | 10 kcps | – | – | – | – | – | – | – | – | – | – | – | – | – | Log10 Infection Rel EF-C [1, 3]: -1.21 |
| KIKIKIKI [TM13] | – | – | -1.487 | – | – | – | – | – | – | – | – | – | – | – | – | n-fold to virus (Feb2021) [1, 5]: 1.369; Log10 of Rel to EFC (Feb2021) [1, 6]: -1.487; Rel-to EFC (Feb-2021) [1, 7]: 0.03258; infectivity [1, 8]: low; Zeta Count Rate / kcps [2, 10]: 155.1 kcps |
| RGDKIKIQINM [MG8a / CN17] | – | – | -0.3838 | 9554 RLU /s | 17.36 | -0.3838 | 0.4132 | medium | 0.4132 | 17.36 | -0.3838 | 0 | 57.2 kcps | 57.2 kcps | 0 | n-fold to virus (Feb2021) [1, 5]: 17.36; Log10 of Rel to EFC (Feb2021) [1, 6]: -0.3838; Rel-to EFC (Feb-2021) [1, 7]: 0.4132; Zeta Count Rate / kcps [2, 10]: 57.2 kcps |
| HHHHKAKAKAKAYYYY [TM10] | – | – | -1.883 | 203.3 RLU /s | 0.5495 | -1.883 | 0.01308 | – | – | – | – | 1 | – | 240.9 kcps | – | infectivity [1, 8]: low |
| LASLIYR [reference compound] | 0.06 | 105 kcps | – | – | – | – | – | – | – | – | – | – | – | – | – | Log10 Infection Rel EF-C [1, 3]: -1.2 |
| CKFKFPF | 0.02 | 143.4 kcps | – | – | – | – | – | – | – | – | – | – | – | – | – | Inf. rel. EF-C [1, 21]: 0.02481; Inf. rel. EF-C [1, 22]: 0.05139; Inf. rel. EF-C [1, 23]: 0.01572; Inf. rel. EF-C [1, 24]: 0.007313; Log10 Infection Rel EF-C [1, 25]: -1.6054; Log10 Count Rate [2, 26]: 2.156; Log10 Count Rate [2, 27]: 2.156 |
| CEFEFQF [KB12] | – | – | -2.283 | – | – | – | – | low | 0.003272 | 0.1375 | -2.485 | – | 405.4 kcps | – | 1 | – |
| KAQCTLP | 0.07 | 97.27 kcps | – | – | – | – | – | – | – | – | – | – | – | – | – | Inf. rel. EF-C [1, 21]: 0.07031; Inf. rel. EF-C [1, 22]: 0.07607; Inf. rel. EF-C [1, 23]: 0.09243; Inf. rel. EF-C [1, 24]: 0.04244; Log10 Infection Rel EF-C [1, 25]: -1.153; Log10 Count Rate [2, 26]: 1.988; Log10 Count Rate [2, 27]: 1.988 |
| IKFLSVN [reference compound] | 0.07 | 137 kcps | – | – | – | – | – | – | – | – | – | – | – | – | – | infectivity enhancement, in words ([1]; fibril-forming peptides with positive zeta-potential, low count rate): do not enhance infectivity; Log10 Infection Rel EF-C [1, 3]: -1.16 |
| KIKIQIII [TG7] | – | – | -0.4521 | 8260 RLU /s | 14.84 | -0.452 | 0.3531 | medium | 0.3531 | 14.84 | -0.452 | 0 | 94.97 kcps | 94.97 kcps | 0 | n-fold to virus (Feb2021) [1, 5]: 14.84; Log10 of Rel to EFC (Feb2021) [1, 6]: -0.452; Rel-to EFC (Feb-2021) [1, 7]: 0.3531; Zeta Count Rate / kcps [2, 10]: 94.97 kcps |
| RGEKIKIQINM [CN18] | – | – | -0.6134 | 7838 RLU /s | 10.23 | -0.6134 | 0.2436 | medium | – | – | – | 1 | – | 594.6 kcps | – | – |
| KIKQIIN [JGA3] | – | – | -1.4 | – | – | – | – | low | 0.0398 | 1.672 | -1.4 | – | 64.03 kcps | – | 0 | Rel-to EFC ([1]; Fig S8 panels B, D; infectivity enhancement relative to EF-C): 0.0398; n-fold to virus ([1]; Fig S8 panels B, D; infectivity n-fold relative to virus alone): 1.672; Log Count Rate ([2]; Fig S8 panels A, C, asymmetric log errors): 1.806; Log Count Rate ([2]; Fig S8 panels B, D): 1.806; Count Rate ([2]; Fig S8 panels B, D, turbidity, derived count rate of scattered light): 64.03 |
| KLKLTLT | 0.04 | 198.5 kcps | – | – | – | – | – | – | – | – | – | – | – | – | – | Inf. rel. EF-C [1, 21]: 0.03847; Inf. rel. EF-C [1, 22]: 0.0783; Inf. rel. EF-C [1, 23]: 0.01816; Inf. rel. EF-C [1, 24]: 0.01895; Log10 Infection Rel EF-C [1, 25]: -1.415; Log10 Count Rate [2, 26]: 2.298; Log10 Count Rate [2, 27]: 2.298 |
